Measurements: ChEMBL document CHEMBL4402596, “Pyridine-Embedded Phenothiazinium Dyes as Lysosome-Targeted Photosensitizers for Highly Efficient Photodynamic Antitumor Therapy” (J Med Chem, 2020)
One block for each compound: values may come before it. Active and inactive are the calls of the source. The rule behind the calls is not given here.

Tests used:
HT-29 [1] = assay: Cytotoxicity against human HT-29 cells assessed as reduction in cell viability preincubated for 1 hr followed by light irradiation at 3.2 J/cm2 for 30 sec and measured after 24 hrs by MTT assay; type: functional, cell-based; conditions: HT-29, light or radiation study
WI-38 = assay: Cytotoxicity against human WI38 cells assessed as reduction in cell viability incubated for 24 hrs in dark by MTT assay; type: cell-based; conditions: WI-38, 24 h
HT-29 [2] = assay: Antitumor activity against human HT-29 cells xenografted in BALB/c mouse assessed as reduction in tumor volume at 2 mg/kg, iv after 2 hrs irradiated with light and measured on day 5; type: functional, organism-based
[3] = Drug localization in lysosome of human HT-29 cells at 0.5 uM measured after 1 hr by LAMP1-GFP based confocal laser scanning microscopy; type: ADME, subcellular; conditions: ht-29, 1 h
[4] = Toxicity in BALB/c mouse xenografted with human HT-29 cells assessed as damage on liver at 2 mg/kg, iv after 2 hrs irradiated with light and measured on day 24; type: organism-based; conditions: in vivo
A549 [5] = assay: Ratio of IC50 for cytotoxicity against human A549 cells in dark to IC50 for cytotoxicity against human A549 cells in light at 3.2J/cm2
MCF7 [6] = assay: Cytotoxicity against human MCF7 cells assessed as reduction in cell viability incubated for 24 hrs in dark by MTT assay; type: cell-based; conditions: MCF7, 24 h
[7] = Toxicity in BALB/c mouse xenografted with human HT-29 cells assessed as damage on heart tissue at 2 mg/kg, iv after 2 hrs irradiated with light and measured on day 24; type: organism-based; conditions: in vivo
HT-29 [8] = assay: Potency index, ratio of IC50 of methylene blue to IC50 of compound for cytotoxicity against human HT-29 cells assessed as reduction in cell viability incubated for 1 hr followed by light irradiation at 3.2 J/cm2 for 30 sec and measured after 24 hrs by MTT assay; type: functional
[9] = Drug localization in lysosome of human HT-29 cells at 0.5 uM measured after 1 hr in dark by Lyso-tracker based confocal laser scanning microscopy; type: ADME, subcellular; conditions: ht-29, 1 h
[10] = Drug localization in lysosome of human WI38 cells at 0.5 uM measured after 1 hr by LAMP1-GFP based confocal laser scanning microscopy; type: ADME, subcellular; conditions: wi-38, 1 h
HT-29 [11] = assay: Antitumor activity against human HT-29 cells xenografted in BALB/c mouse assessed as reduction in tumor growth at 2 mg/kg, iv after 2 hrs irradiated with light and measured on day 5; type: functional, organism-based
[12] = Induction of singlet oxygen generation in EtOH assessed as singlet oxygen quantum yield irradiated with 12.8 J light for 2 mins by DPBF-based assay; type: functional
[13] = Toxicity in BALB/c mouse xenografted with human HT-29 cells assessed as damage in kidney at 2 mg/kg, iv after 2 hrs irradiated with light and measured on day 24; type: organism-based; conditions: in vivo
[14] = Drug uptake in nucleus of human HT-29 cells at 0.5 uM incubated for 5 hrs by Hoechst 33342 staining based fluorescence microscopy; type: ADME, cell-based; conditions: ht-29, 5 h
[15] = AUC (0 to infinity) in Sprague-Dawley rat at 2 mg/kg, iv measured upto 24 hrs by fluorescence based assay; type: ADME, organism-based; set-up: dose 2 mg/kg, route intravenous, time infinity; conditions: in vivo
[16] = Toxicity in BALB/c mouse xenografted with human HT-29 cells assessed as damage in spleen at 2 mg/kg, iv after 2 hrs irradiated with light and measured on day 24; type: organism-based; conditions: in vivo
[17] = Half life in Sprague-Dawley rat at 2 mg/kg, iv measured upto 24 hrs by fluorescence based assay; type: ADME, organism-based; conditions: in vivo
A549 [18] = assay: Cytotoxicity against human A549 cells assessed as reduction in cell viability incubated for 1 hr followed by light irradiation at 3.2 J/cm2 for 30 sec and measured after 24 hrs by MTT assay; type: functional, cell-based; conditions: A549, light or radiation study
[19] = MRT (0 to infinity) in Sprague-Dawley rat at 2 mg/kg, iv measured upto 24 hrs by fluorescence based assay; type: ADME, organism-based; conditions: in vivo
[20] = Cmax in Sprague-Dawley rat at 2 mg/kg, iv measured upto 24 hrs by fluorescence based assay; type: ADME, organism-based; set-up: dose 2 mg/kg, route intravenous; conditions: in vivo
MCF7 [21] = assay: Ratio of IC50 for cytotoxicity against human MCF7 cells in dark to IC50 for cytotoxicity against human MCF7 cells in light at 3.2J/cm2
A549 [22] = assay: Cytotoxicity against human A549 cells assessed as reduction in cell viability incubated for 24 hrs in dark by MTT assay; type: cell-based; conditions: A549, 24 h
HT-29 [23] = assay: Induction of morphological changes in nucleus of human HT-29 cells at 0.5 uM incubated for 18 hrs in dark by Hoechst 33342 staining based fluorescence microscopy; type: cell-based; conditions: ht-29, 18 h
HT-29 [24] = assay: Induction of ROS generation in human HT-29 cells at 0.5 uM incubated for 0.5 hrs followed by DCFH-DA addition for 0.5 hrs then irradiated with light for 30 sec and measured after 15 mins by flow cytometry; type: functional, cell-based
HT-29 [25] = assay: Cytotoxicity against human HT-29 cells assessed as reduction in cell viability incubated for 24 hrs in dark by MTT assay; type: cell-based; conditions: HT-29, 24 h
HT-29 [26] = assay: Cytotoxicity against human HT-29 cells assessed as reduction in cell viability preincubated for 1 hr followed by light irradiation at 3.2 J/cm2 for 10 to 180 secs and measured after 24 hrs by MTT assay; type: functional, cell-based
[27] = AUC (0 to t) in Sprague-Dawley rat at 2 mg/kg, iv measured upto 24 hrs by fluorescence based assay; type: ADME, organism-based; conditions: in vivo
[28] = Photostability of compound assessed as decrease in rate of photo decomposition at 5 uM irradiated with LED light (630 nm, 106 mW cm'-2) upto 12 mins by UV spectrophotometry
HT-29 [29] = assay: Antitumor activity against human HT-29 cells xenografted in BALB/c mouse assessed as reduction in tumor volume at 2 mg/kg, iv after 2 hrs irradiated with light and measured on day 24; type: functional, organism-based
HT-29 [30] = assay: Induction of morphological changes in nucleus of human HT-29 cells at 0.5 uM incubated in dark for 1 hr followed by irradiated with LED light for 30 sec and measured after 18 hrs by Hoechst 33342 staining based fluorescence microscopy; type: functional, cell-based
[31] = Clearance in Sprague-Dawley rat at 2 mg/kg, iv measured upto 24 hrs by fluorescence based assay; type: ADME, organism-based; conditions: in vivo
[32] = Toxicity in BALB/c mouse xenografted with human HT-29 cells assessed as damage on lung at 2 mg/kg, iv after 2 hrs irradiated with light and measured on day 24; type: organism-based; conditions: in vivo
MCF7 [33] = assay: Cytotoxicity against human MCF7 cells assessed as reduction in cell viability incubated for 1 hr followed by light irradiation for 30 sec at 3.2 J/cm2 and measured after 24 hrs by MTT assay; type: functional, cell-based; conditions: MCF7, light or radiation study
[34] = Drug localization in mitochondria of human Ht-29 cells at 0.5 uM measured after 1 hr by Mito-GFP based confocal laser scanning microscopy; type: ADME; conditions: ht-29, 1 h
HT-29 [35] = assay: Ratio of IC50 for cytotoxicity against human HT-29 cells in dark to IC50 for cytotoxicity against human HT-29 cells in light at 3.2J/cm2
[36] = Drug localization in mitochondria of human WI38 cells at 0.5 uM measured after 1 hr by Mito-GFP based confocal laser scanning microscopy; type: ADME; conditions: wi-38, 1 h

Drug uptake [3]: Active
Drug uptake [9]: Active
Drug uptake [10]: Active
Drug uptake [14]: Not Active
AUC [15]: 4.55 µg·h/mL
half-life [17]: 7.81 h
MRT inf [19]: 12.4 h
Cmax [20]: 2.18 µg/mL
AUCt [27]: 3.78 mg/h/L
clearance [31]: 0.44 L/h/kg
Drug uptake [34]: Not Active
Drug uptake [36]: Not Active
SMILES: CCCNc1cc2[s+]c3cc(N(CC)CC)ccc3nc2c2ccc(C)nc12.[Cl-]
IC50 (HT-29 [1]): 0.039 µM
IC50 (WI-38): > 10 µM
Activity (HT-29 [2]): Active
Activity [4]: Non-Toxic
Ratio IC50 (A549 [5]): 9.1
IC50 (MCF7 [6]): 1.9 µM
Activity [7]: Non-Toxic
Ratio IC50 (HT-29 [8]): 235
Activity (HT-29 [11]): Active
Activity [12]: 0.08 to 0.14
Activity [13]: Non-Toxic
Activity [16]: Non-Toxic
IC50 (A549 [18]): 0.34 µM
Ratio IC50 (MCF7 [21]): 5.1
IC50 (A549 [22]): 3.1 µM
Activity (HT-29 [23]): Non-Toxic
Activity (HT-29 [24]): Active
IC50 (HT-29 [25]): 2.1 µM
Activity (HT-29 [26]): Active
Stability [28]: Stable
Activity (HT-29 [29]): Active
Activity (HT-29 [30]): Active
Activity [32]: Non-Toxic
IC50 (MCF7 [33]): 0.37 µM
Ratio IC50 (HT-29 [35]): 53.8

Drug uptake [9]: Active
SMILES: CCCCCCCNc1cc2[s+]c3cc(N(CC)CC)ccc3nc2c2ccc(C)nc12.[Cl-]
IC50 (HT-29 [1]): 1.05 µM
Ratio IC50 (A549 [5]): 4.6
IC50 (MCF7 [6]): 14.4 µM
Activity [12]: 0.08 to 0.14
IC50 (A549 [18]): 3.7 µM
Ratio IC50 (MCF7 [21]): 3.8
IC50 (A549 [22]): 17.1 µM
Activity (HT-29 [24]): Active
IC50 (HT-29 [25]): 8.89 µM
Activity (HT-29 [26]): Active
Stability [28]: Stable
IC50 (MCF7 [33]): 3.8 µM
Ratio IC50 (HT-29 [35]): 8.47

Drug uptake [9]: Active
SMILES: CCN(CC)c1ccc2nc3c(cc(N)c4nc(C)ccc43)[s+]c2c1.[Cl-]
IC50 (HT-29 [1]): 0.21 µM
Ratio IC50 (A549 [5]): 3.6
IC50 (MCF7 [6]): 1.1 µM
Activity [12]: 0.08 to 0.14
IC50 (A549 [18]): 1.8 µM
Ratio IC50 (MCF7 [21]): 2.2
IC50 (A549 [22]): 6.5 µM
Activity (HT-29 [24]): Active
IC50 (HT-29 [25]): 4.6 µM
Activity (HT-29 [26]): Active
Stability [28]: Stable
IC50 (MCF7 [33]): 0.5 µM
Ratio IC50 (HT-29 [35]): 21.9

Drug uptake [14]: Active
SMILES: CN(C)c1ccc2nc3ccc(N(C)C)cc3[s+]c2c1.[Cl-] [METHYLENE BLUE ANHYDROUS]
IC50 (HT-29 [1]): 9.2 µM
IC50 (HT-29 [25]): > 10 µM
